Laboratory results as given in article PMC6695355, “Alanine Scanning Studies of the Antimicrobial Peptide Aurein 1.2” (Probiotics and Antimicrobial Proteins, 2018).
Values after ≈ are worked out from the molar mass of the structure shown. Where a SMILES comes first, the peptide text is derived from it.

Tests used:
E. faecalis PCM 2673 = type: cell-based, Enterococcus faecalis; details: PCM 2673, 18 h
How it was run: (§1)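 Broth microdilution per CLSI, 1–512 μg/mL; bacteria 0.5 × 10^5 CFU/mL in MHB, 37 °C 18 h; C. albicans 2 × 10^3 CFU/mL in RPMI-1640, 24 h; MIC = lowest concentration visibly inhibiting growth. MBEC: 24-h biofilms, PBS-rinsed, compound 24 h at 37 °C, resazurin read after 1 h. MBIC: compound with inoculum 24 h, then resazurin 1 h; cut-off ≤10% reduction versus controls.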

[1] = tested on: E. faecalis PCM 2673 biofilm; type: cell-based, Enterococcus faecalis; details: 24 h
How it was run: as §1

[2] = tested on: E. faecalis PCM 2673 biofilm formation; type: cell-based, Enterococcus faecalis; details: 24 h
How it was run: as §1

[3] = tested on: P. aeruginosa ATCC 9027 biofilm formation; type: cell-based, Pseudomonas aeruginosa; details: ATCC 9027, 24 h
How it was run: as §1

[4] = tested on: P. aeruginosa ATCC 9027 biofilm; type: cell-based, Pseudomonas aeruginosa; details: ATCC 9027, 24 h
How it was run: as §1

P. aeruginosa ATCC 9027 = type: cell-based, Pseudomonas aeruginosa; details: ATCC 9027, 18 h
How it was run: as §1

S. aureus ATCC 25923 = type: cell-based, Staphylococcus aureus; details: ATCC 25923, 18 h
How it was run: (§2)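 Broth microdilution (CLSI), 1–512 μg/mL, 37 °C; S. aureus 0.5 × 10^5 CFU/mL MHB 18 h; C. albicans 2 × 10^3 CFU/mL RPMI-1640 24 h; MIC = no visible growth. Biofilm: 24 h preformed, PBS-washed, compound 24 h (MBEC) or compound + inoculum 24 h (MBIC); resazurin 1 h, cut-off ≤10%.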

[5] = tested on: S. aureus ATCC 25923 biofilm; type: cell-based, Staphylococcus aureus; details: ATCC 25923, 24 h
How it was run: as §2

[6] = tested on: S. aureus ATCC 25923 biofilm formation; type: cell-based, Staphylococcus aureus; details: ATCC 25923, 24 h
How it was run: as §2

[7] = tested on: C. albicans ATCC 10231 biofilm formation; type: cell-based, Candida albicans; details: ATCC 10231, 24 h
How it was run: as §2

C. albicans ATCC 10231 = type: cell-based, Candida albicans; details: ATCC 10231, 24 h
How it was run: as §2

[8] = tested on: C. albicans ATCC 10231 biofilm; type: cell-based, Candida albicans; details: ATCC 10231, 24 h
How it was run: as §2

in vitro = in vitro ADME; details: bovine, serum
How it was run: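 Peptides incubated in 25% (v/v) fetal bovine serum in PBS at 37 °C, quenched with ice-cold acetonitrile at t0 and 6 h. Intact peptide quantified by RP-HPLC-MS in selected ion recording mode; % remaining = peak area at 6 h / peak area at t0.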

[9] = tested on: E. coli ATCC 25922 biofilm formation; type: cell-based, Escherichia coli; details: ATCC 25922, 24 h
How it was run: as §1

[10] = tested on: E. coli ATCC 25922 biofilm; type: cell-based, Escherichia coli; details: ATCC 25922, 24 h
How it was run: as §1

E. coli ATCC 25922 = type: cell-based, Escherichia coli; details: ATCC 25922, 18 h
How it was run: as §1

[11] = type: physicochemical; details: pH 7.4
[12] = tested on: human red blood cells (RBCs); experiment: Hemolysis assay; type: cell-based; details: red cells of human, 1 h
How it was run: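 Fresh EDTA-anticoagulated human erythrocytes were PBS-washed and used at 4% (v/v) with peptide at 1–256 μg/mL in PBS for 1 h at 37 °C. Hemoglobin release in the supernatant was read at 540 nm. PBS set 0% and 1% Triton X-100 set 100% hemolysis; run in triplicate.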

SMILES | MIC, E. faecalis PCM 2673 (E. faecalis PCM 2673) [mg/L] | MBEC, E. faecalis PCM 2673 [1] [µg/mL] | MBIC, E. faecalis PCM 2673 [2] [µg/mL] | MBIC, P. aeruginosa ATCC 9027 [3] [µg/mL] | MBEC, P. aeruginosa ATCC 9027 [4] [µg/mL] | MIC, S. aureus ATCC 25923 (S. aureus ATCC 25923) [mg/L] | MBEC, S. aureus ATCC 25923 [5] [µg/mL] | MBIC, S. aureus ATCC 25923 [6] [µg/mL] | MBIC, C. albicans ATCC 10231 [7] [µg/mL] | MIC, C. albicans ATCC 10231 (C. albicans ATCC 10231) [mg/L] | MBEC, C. albicans ATCC 10231 [8] [µg/mL] | remaining at 6 h, 0.125 mg/mL (in vitro) [%] | MBIC, E. coli ATCC 25922 [9] [µg/mL] | MBEC, E. coli ATCC 25922 [10] [µg/mL] | MIC, E. coli ATCC 25922 (E. coli ATCC 25922) [mg/L] | Percentage of hemolysis at 1 μg/mL [12] [%] | Percentage of hemolysis at 2 μg/mL [12] [%] | Percentage of hemolysis at 4 μg/mL [12] [%] | Percentage of hemolysis at 8 μg/mL [12] [%] | Percentage of hemolysis at 16 μg/mL [12] [%] | also measured
CC[C@H](C)[C@H](NC(=O)[C@H](CCCCN)NC(=O)[C@H](C)NC(=O)[C@@H](NC(=O)[C@@H](NC(=O)[C@H](CC(=O)O)NC(=O)[C@H](Cc1ccccc1)NC(=O)[C@H](CC(C)C)NC(=O)CN)[C@@H](C)CC)[C@@H](C)CC)C(=O)N[C@@H](C)C(=O)N[C@@H](CCC(=O)O)C(=O)N[C@@H](CO)C(=O)N[C@@H](Cc1ccccc1)C(N)=O [Peptide K7A] (H-GLFDIIAKIAESF-NH2) | 512 (≈ 360 µM) | > 512 | > 512 | > 512 | > 512 | > 512 | > 512 | > 512 | 4 | > 512 | > 512 | 59 | 64 | > 512 | > 512 | 0.2 | 0.1 | 0.0 | 0.0 | 0.1 | MIC, P. aeruginosa ATCC 9027 (P. aeruginosa ATCC 9027): > 512 mg/L; Solubility in surfactant-free phosphate buffer [11]: poor solubility; Percentage of hemolysis at 32 μg/mL [12]: 3.4%; Percentage of hemolysis at 64 μg/mL [12]: 0.7%; Percentage of hemolysis at 128 μg/mL [12]: 3.0%; Percentage of hemolysis at 256 μg/mL [12]: 4.6%
CC[C@H](C)[C@H](NC(=O)[C@H](C)NC(=O)[C@H](CCCCN)NC(=O)[C@@H](NC(=O)[C@@H](NC(=O)[C@H](CC(=O)O)NC(=O)[C@H](Cc1ccccc1)NC(=O)[C@H](CC(C)C)NC(=O)CN)[C@@H](C)CC)[C@@H](C)CC)C(=O)N[C@@H](C)C(=O)N[C@@H](CCC(=O)O)C(=O)N[C@@H](CO)C(=O)N[C@@H](Cc1ccccc1)C(N)=O [Peptide K8A] (H-GLFDIIKAIAESF-NH2) | 64 (≈ 45 µM) | > 512 | 128 | > 512 | > 512 | > 512 | > 512 | > 512 | 4 | 64 (≈ 45 µM) | > 512 | 36 | 32 | > 512 | 128 (≈ 90 µM) | 0.1 | 0.0 | 0.0 | 0.0 | 0.0 | MIC, P. aeruginosa ATCC 9027 (P. aeruginosa ATCC 9027): > 512 mg/L; Solubility in surfactant-free phosphate buffer [11]: poor solubility; Percentage of hemolysis at 32 μg/mL [12]: 5.5%; Percentage of hemolysis at 64 μg/mL [12]: 16.1%; Percentage of hemolysis at 128 μg/mL [12]: 49.3%; Percentage of hemolysis at 256 μg/mL [12]: 89.6%
CC[C@H](C)[C@H](NC(=O)[C@H](CCCCN)NC(=O)[C@H](CCCCN)NC(=O)[C@@H](NC(=O)[C@@H](NC(=O)[C@H](CC(=O)O)NC(=O)[C@H](Cc1ccccc1)NC(=O)[C@H](CC(C)C)NC(=O)CN)[C@@H](C)CC)[C@@H](C)CC)C(=O)N[C@@H](C)C(=O)N[C@@H](CCC(=O)O)C(=O)N[C@@H](C)C(=O)N[C@@H](Cc1ccccc1)C(N)=O [Peptide S12A] (H-GLFDIIKKIAEAF-NH2) | 64 (≈ 43.7 µM) | 128 | 128 | >512 | > 512 | 32 (≈ 21.9 µM) | > 512 | 32 | 2 | 32 (≈ 21.9 µM) | 256 | 77 | 32 | > 512 | 64 (≈ 43.7 µM) | 0.0 | 0.0 | 0.0 | 0.0 | 1.2 | Solubility in surfactant-free phosphate buffer [11]: poor solubility; Percentage of hemolysis at 32 μg/mL [12]: 6.5%; Percentage of hemolysis at 64 μg/mL [12]: 12.0%; Percentage of hemolysis at 128 μg/mL [12]: 15.4%; Percentage of hemolysis at 256 μg/mL [12]: 23.5%
CC[C@H](C)[C@H](NC(=O)[C@H](CCCCN)NC(=O)[C@H](CCCCN)NC(=O)[C@@H](NC(=O)[C@@H](NC(=O)[C@H](CC(=O)O)NC(=O)[C@H](Cc1ccccc1)NC(=O)[C@H](CC(C)C)NC(=O)CN)[C@@H](C)CC)[C@@H](C)CC)C(=O)N[C@@H](C)C(=O)N[C@@H](CCC(=O)O)C(=O)N[C@@H](CO)C(=O)N[C@@H](Cc1ccccc1)C(N)=O [aurein 1.2] (H-GLFDIIKKIAESF-NH2) | 64 (≈ 43.2 µM) | > 512 | 128 | 128 | 512 | 128 (≈ 86.5 µM) | 128 | 128 | 2 | 32 (≈ 21.6 µM) | 256 | 65 | 128 | 64 | 64 (≈ 43.2 µM) | 0.0 | 0.1 | 0.0 | 0.0 | 0.4 | MIC, P. aeruginosa ATCC 9027 (P. aeruginosa ATCC 9027): 256 mg/L (≈ 173 µM); Percentage of hemolysis at 32 μg/mL [12]: 0.5%; Percentage of hemolysis at 64 μg/mL [12]: 4.5%; Percentage of hemolysis at 128 μg/mL [12]: 19.2%; Percentage of hemolysis at 256 μg/mL [12]: 58.8%
